Results: US9040523B2, “Antifungal 5,6-dihydro-4H-pyrrolo[1,2-α][1,4]-benzodiazepines and 6H-pyrrolo[1,2-α][1,4]benzodiazepines substituted with benzene derivatives” (JANSSEN PHARMACEUTICA NV, priority 2010, dated 2015)

Experiments:
[1] = target: T1, Cytochrome P450 1A2 (Homo sapiens, UniProt P05177); test: Human liver microsomal cytochrome P450 cocktail inhibition assay, Protocol C
T1 sequence (P05177 1-516): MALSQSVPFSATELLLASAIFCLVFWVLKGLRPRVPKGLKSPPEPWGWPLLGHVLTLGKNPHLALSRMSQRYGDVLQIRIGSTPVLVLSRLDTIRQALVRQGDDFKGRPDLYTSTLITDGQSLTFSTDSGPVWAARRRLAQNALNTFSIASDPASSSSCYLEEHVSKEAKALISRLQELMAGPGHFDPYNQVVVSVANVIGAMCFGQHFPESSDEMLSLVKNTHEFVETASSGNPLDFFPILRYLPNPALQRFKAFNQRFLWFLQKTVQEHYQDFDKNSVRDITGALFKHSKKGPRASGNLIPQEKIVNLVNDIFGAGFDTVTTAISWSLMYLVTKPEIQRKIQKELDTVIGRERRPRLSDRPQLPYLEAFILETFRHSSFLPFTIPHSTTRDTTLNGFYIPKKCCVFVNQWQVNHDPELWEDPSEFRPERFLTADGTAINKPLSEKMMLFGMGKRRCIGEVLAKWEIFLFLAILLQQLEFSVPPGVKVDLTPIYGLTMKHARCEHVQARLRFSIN
Protocol: (§1) Probe substrates and final assay concentrations with the appropriate internal standard are outlined in Table 6a.
(§2) Assays were performed in 0.1 M phosphate buffer (pH 7.4), containing 0.2 mg/ml human liver microsomes (BD Gentest) and a probe substrate mix consisting of: phenacetin, tolbutamide, S-mephenyloin, dextromethorphan, amodiaquine and midazolam (Table 6a) and a range of test compound concentrations (0 to 30 micromolar) in a total volume of 100 microliters. After a 10 min pre-incubation at 37° C., the reaction was started with addition of NADPH at a final concentration of 1.0 mM. […] The samples are centrifuged for 10 min at 4° C. at 4000 rpm and 60 microliters supernatant is diluted with 180 microliters water. Each sample is injected onto a UPLC/MS system for the simultaneous measurement of the probe substrate metabolites and their associated deuterated internal standards. Percentage inhibition is calculated according to: %-inhibition=(1−Ri/R)*100, whereby Ri and R are the metabolite to internal standard peak area ratios in the presence and absence of inhibitor respectively.
(§3) Percentage inhibition data are plotted against the Log transformed test compound concentration and after curve fitting the IC50-value is determined.

[2] = target: Cytochrome P450 2D6 (Homo sapiens, UniProt P10635); test: as above; details: 2D6_Dextro pIC50, human liver microsomes 0.2 mg/ml; probe dextromethorphan 3 microM
Protocol: as §1, §2, §3

[3] = target: Cytochrome P450 2C9 (Homo sapiens, UniProt P11712); test: as above; details: 2C9 Tolbut pIC50, human liver microsomes 0.2 mg/ml; probe tolbutamide 100 microM
Protocol: as §1, §2, §3

[4] = target: Cytochrome P450 2C19 (Homo sapiens, UniProt P33261); test: as above; details: 2C19_S-Meph pIC50, human liver microsomes 0.2 mg/ml; probe S-mephenytoin 30 microM
Protocol: as §1, §2, §3

[5] = Liver metabolic stability assay, gpLM; format: in vitro ADME, guinea pig
Protocol: (§4) Liver preparations (microsomal fractions) were obtained from BD Gentest (San Jose, Calif., US). Metabolic stability was assessed using the following assay conditions. […] The mixture was pre-incubated at 37° C. for 5 min and the enzymatic reaction was started by addition of 5 μM test compound. After 0 (control) and 15 minutes (min), the reactions were terminated by addition of […] (500 μl). The precipitated material was removed by centrifugation at 1200 g for 10 min. The supernatant was analysed by LC-MS/MS on a ThermoFinnigan LCQ Deca XP ion-trap mass spectrometer equipped with an atmospheric pressure chemical ionisation source. Calculation of %-compound remaining was as described by Kantharaj et al. 2003 ((Kantharaj E., Tuytelaars A, Proost P E A, Ongel Z, van […] (2003). Simultaneous measurement of drug metabolic stability and identification of metabolites using ion-trap mass spectrometry.

[6] = system: Candida parapsilosis B66126; test: Antifungal activity in vitro (resazurin susceptibility screen), Inf. D; format: cell-based; details: Lodderomyces parapsilosis; Candida parapsilosis B66126; 37 °C, 24 hours, resa time 4 hours; read-out: Inf. D pIC50 (converted)
Protocol: (§5) The standard susceptibility screen was performed in 96-well plates (U-bottom, Greiner Bio-One). […] These serial dilutions (10 n1) were then spotted onto test-plates that could be stored in the dark at 4° C. for a maximum period of 2 weeks. […] A standard inoculum of 200 μl containing 10^3 colony-forming unit (cfu) was then added to each well. A positive control (100% growth=fungal culture without antifungal) and a negative control (0% growth ═RPMI-MOPS medium) were included on each plate.

[7] = system: Trichophyton mentagrophytes B70554; test: Antifungal activity in vitro (resazurin susceptibility screen), Inf. G; format: cell-based; details: Trichophyton mentagrophytes, B70554, Trichophyton mentagrophytes B70554; 27 °C, 7 days, resa time 24 hours; read-out: Inf. G pIC50 (converted)
Protocol: as §5

[8] = target: CYP2D6 (Homo sapiens, UniProt P10635); test: Cytochrome P450 inhibition, Protocol A, cDNA expressed proteins, fluorogenic substrate; format: in vitro ADME
Protocol: (§6) All fluorogenic based assays were performed in Black Costar 96-well plates according to Crespi et al 1997 with minor modifications (Crespi C L, Miller V P & Penman B W (1997). Microtiter plate assays for inhibition of human, drug-metabolizing cytochromes P450. Anal. Biochem. Vol 248, 1898-1900). Assay conditions are outlined in Table 5a. For cytochrome P450 3A4, three different fluorogenic substrates were used. Each reaction mixture consisted of the appropriate concentration of enzyme, NADPH-generating system (“NADPH” means β-nicotinamide adenine dinucleotide phosphate, reduced), substrate in sodium/potassium buffer (pH 7.4). For each cytochrome P450 batch Michealis-Menten kinetics were determined using 11 concentrations.
(§7) Thereafter, further dilutions were made in acetonitrile. […] The compounds were serially diluted to give final concentrations ranging from 1 nM to 10 μM. The reaction mixtures, whereby 1 μL of buffer was replaced by compound solution, were pre-warmed for 5 min at 37° C. and the reaction was initiated by the addition of β-nicotinamide adenine dinucleotide phosphate (NADP+). Reactions were terminated by addition of stopping reagent and the fluorescence was measured using a Fluoroscan (Labsystems, Brussel, Belgium).
(§8) In Table 5a, the following abbreviations were used: 3-cyano-7-ethocycoumarin (CEC), 7-methoxy-4-trifluoromethylcoumarin (MFC), 3-[2-(N,N-diethyl-N-methylamino)ethyl]-7-methoxy-4-methylcoumarin (AMMC), 7-benzyloxy-trifluoromethyl coumarin (BFC), 7-benzyloxyquinoline (BQ) and dibenzyl fluorescein (DBF).

[9] = target: CYP2C9 (Homo sapiens, UniProt P11712); test: as above; format: in vitro ADME
Protocol: as §6, §7, §8

[10] = target: T2, CYP1A2 (Homo sapiens, UniProt P05177); test: as above; format: in vitro ADME
T2 sequence (P05177 1-516): T1 sequence (P05177 1-516)
Protocol: as §6, §7, §8

[11] = system: Microsporum canis B68128; test: Antifungal activity in vitro (resazurin susceptibility screen), Inf. B; format: cell-based; details: Microsporum canis, B68128, Microsporum canis B68128; 27 °C, 9 days, resa time 24 hours; read-out: Inf. B pIC50 (converted)
Protocol: as §5

[12] = system: Aspergillus fumigatus B42928; test: Antifungal activity in vitro (resazurin susceptibility screen), Inf. E; format: cell-based; details: Aspergillus fumigatus B42928; 27 °C, 48 hours, resa time 17 hours; read-out: Inf. E pIC50 (converted)
Protocol: (§9) The standard susceptibility screen was performed in 96-well plates (U-bottom, Greiner Bio-One). […] These serial dilutions (10 n1) were then spotted onto test-plates that could be stored in the dark at 4° C. for a maximum period of 2 weeks. […] The different fungal species/isolates (Table 3a) were cryopreserved and 1/1000 diluted in medium just prior to use. A standard inoculum of 200 μl containing 10^3 colony-forming unit (cfu) was then added to each well. A positive control (100% growth=fungal culture without antifungal) and a negative control (0% growth ═RPMI-MOPS medium) were included on each plate. […] [table]

[13] = system: Sporothrix schenkii B62482; test: Antifungal activity in vitro (resazurin susceptibility screen), Inf. A; format: cell-based; details: Sporothrix, B62482, Sporothrix schenkii B62482; 27 °C, 4 days, resa time 24 hours; highest in-test concentration 64 μM; read-out: Inf. A pIC50 (converted)
Protocol: as §9

[14] = system: Trichophyton rubrum B68183; test: Antifungal activity in vitro (resazurin susceptibility screen), Inf. C; format: cell-based; details: Trichophyton rubrum B68183; 27 °C, 7 days, resa time 24 hours; read-out: Inf. C pIC50 (converted)
Protocol: as §9

[15] = Liver metabolic stability assay, hLM; format: in vitro ADME, human
Protocol: as §4

[16] = system: Cryptococcus neoformans B66663; test: Antifungal activity in vitro (resazurin susceptibility screen), Inf. F; format: cell-based; details: Cryptococcus neoformans, B66663, Cryptococcus neoformans B66663; 37 °C, 24 hours, resa time 4 hours; read-out: Inf. F pIC50 (converted)
Protocol: as §9

[17] = target: CYP3A4 (Homo sapiens, UniProt P08684); test: Cytochrome P450 inhibition, Protocol A, cDNA expressed proteins, fluorogenic substrates; format: in vitro ADME
Protocol: as §6, §7, §8

[18] = % inhibition at 10 μM, substrate AMMC, cDNA expressed protein
[19] = % inhibition at 10 μM, substrate MFC, cDNA expressed protein
[20] = % inhibition at 10 μM, substrate CEC, cDNA expressed protein
[21] = human liver microsomes, 1 mg protein/ml, 5 μM test compound, 15 min, 37 °C
[22] = % inhibition at 10 μM, substrate BFC, cDNA expressed protein
[23] = % inhibition at 10 μM, substrate BQ, cDNA expressed protein
[24] = % inhibition at 10 μM, substrate DBF, cDNA expressed protein

Chain of CYP3A4 (P08684 whole entry): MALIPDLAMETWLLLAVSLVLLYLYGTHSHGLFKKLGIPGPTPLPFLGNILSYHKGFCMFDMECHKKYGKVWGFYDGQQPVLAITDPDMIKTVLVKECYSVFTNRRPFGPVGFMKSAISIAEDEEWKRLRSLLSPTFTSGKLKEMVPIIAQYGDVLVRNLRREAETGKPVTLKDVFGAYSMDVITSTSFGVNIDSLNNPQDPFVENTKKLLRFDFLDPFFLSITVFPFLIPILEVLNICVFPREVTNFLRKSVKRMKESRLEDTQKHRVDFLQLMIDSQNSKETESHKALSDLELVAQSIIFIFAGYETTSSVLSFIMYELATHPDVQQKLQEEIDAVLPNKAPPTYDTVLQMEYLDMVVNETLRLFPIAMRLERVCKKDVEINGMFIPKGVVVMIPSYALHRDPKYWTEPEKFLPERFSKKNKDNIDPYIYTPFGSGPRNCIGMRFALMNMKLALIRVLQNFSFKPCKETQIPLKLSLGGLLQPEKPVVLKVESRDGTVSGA
Chain of CYP2C9 (P11712 whole entry): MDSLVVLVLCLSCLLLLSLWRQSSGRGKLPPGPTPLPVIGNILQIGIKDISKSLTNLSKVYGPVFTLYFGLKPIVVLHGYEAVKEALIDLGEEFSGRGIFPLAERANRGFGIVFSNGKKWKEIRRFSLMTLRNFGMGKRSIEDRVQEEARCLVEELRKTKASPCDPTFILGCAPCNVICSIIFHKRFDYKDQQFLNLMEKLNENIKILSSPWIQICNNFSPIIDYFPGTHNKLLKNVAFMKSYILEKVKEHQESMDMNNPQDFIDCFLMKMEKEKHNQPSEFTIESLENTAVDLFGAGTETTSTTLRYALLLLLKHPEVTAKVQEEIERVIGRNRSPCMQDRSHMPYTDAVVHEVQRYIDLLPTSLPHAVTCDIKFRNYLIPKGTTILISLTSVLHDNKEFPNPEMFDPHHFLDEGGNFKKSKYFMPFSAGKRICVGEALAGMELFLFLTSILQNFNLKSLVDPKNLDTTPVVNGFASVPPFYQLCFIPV
Chain of CYP2D6 (P10635 whole entry): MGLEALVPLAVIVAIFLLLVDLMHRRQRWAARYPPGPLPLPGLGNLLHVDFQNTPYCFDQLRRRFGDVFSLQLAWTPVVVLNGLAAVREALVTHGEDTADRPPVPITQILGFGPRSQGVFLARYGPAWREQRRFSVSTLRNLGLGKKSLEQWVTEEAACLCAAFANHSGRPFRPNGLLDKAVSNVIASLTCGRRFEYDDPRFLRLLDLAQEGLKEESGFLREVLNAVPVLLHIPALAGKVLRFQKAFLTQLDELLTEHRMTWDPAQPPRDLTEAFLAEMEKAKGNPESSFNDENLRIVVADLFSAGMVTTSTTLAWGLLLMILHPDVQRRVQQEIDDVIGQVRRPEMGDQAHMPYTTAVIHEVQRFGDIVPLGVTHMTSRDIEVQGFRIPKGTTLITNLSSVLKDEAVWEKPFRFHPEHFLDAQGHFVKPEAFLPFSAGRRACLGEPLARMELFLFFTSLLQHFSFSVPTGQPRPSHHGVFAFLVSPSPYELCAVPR
Chain of Cytochrome P450 2C19 (P33261 whole entry): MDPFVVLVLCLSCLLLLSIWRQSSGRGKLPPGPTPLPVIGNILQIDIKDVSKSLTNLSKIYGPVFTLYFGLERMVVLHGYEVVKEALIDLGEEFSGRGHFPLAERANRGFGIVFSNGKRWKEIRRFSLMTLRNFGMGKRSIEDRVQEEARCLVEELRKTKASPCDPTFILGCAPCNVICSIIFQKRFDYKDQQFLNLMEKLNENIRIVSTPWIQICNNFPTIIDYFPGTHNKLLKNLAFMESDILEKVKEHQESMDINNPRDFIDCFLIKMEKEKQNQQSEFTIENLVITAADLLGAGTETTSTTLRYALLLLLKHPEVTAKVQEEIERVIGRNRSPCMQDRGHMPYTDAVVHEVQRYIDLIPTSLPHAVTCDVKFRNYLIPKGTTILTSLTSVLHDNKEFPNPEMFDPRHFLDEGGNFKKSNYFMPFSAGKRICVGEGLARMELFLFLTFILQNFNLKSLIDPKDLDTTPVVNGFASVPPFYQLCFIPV
Chain of Cytochrome P450 2C9 (P11712 whole entry): as the sequence (P11712 whole entry) above
Chain of Cytochrome P450 2D6 (P10635 whole entry): as the sequence (P10635 whole entry) above

SMILES	IC50 [1]	IC50 [2]	IC50 [3]	IC50 [4]	IC50 [6]	IC50 [7]	IC50 [11]	IC50 [12]	IC50 [13]	IC50 [14]	IC50 [16]	hCYP2D6_AMMC_Pct_Inh [8, 18]	hCYP2C9_MFC_Pct_Inh [9, 19]	hCYP1A2_CEC_Pct_Inh [10, 20]	%-compound metabolised_Met_hLM [15, 21]	hCYP3A4_BFC_Pct_Inh [17, 22]	hCYP3A4_BQ_Pct_Inh [17, 23]	hCYP3A4_DBF_Pct_Inh [17, 24]	also measured
CCc1cccc(C2NCc3c(Cl)cccc3-n3cccc32)c1 (centres unmarked)	> 10 µM	2 µM	6.31 µM	1.26 µM															
CC(=O)c1cc(C2NCc3c(Cl)cc(Cl)cc3-n3cccc32)ccc1F (centres unmarked) [Compound 13, 1-[5-(7,9-dichloro-5,6-dihydro-4H-pyrrolo[1,2-a][1,4]benzodiazepin-4-yl)-2-fluorophenyl]-ethanone]					> 63.1 µM	> 63.1 µM	7.94 µM	> 63.1 µM	> 63.1 µM	2 µM	> 63.1 µM								%-compound metabolised Met_gpLM ([5]; guinea pig, microsomes, 0.25 h, 5 μM, pH 7.4): 95%; hCYP2D6_AMMC_Pct_Inh ([8]; human, 10 μM, pH 7.4): 51%; hCYP2C9_MFC_Pct_Inh ([9]; human, 10 μM, pH 7.4): 61%; hCYP1A2_CEC_Pct_Inh ([10]; human, 10 μM, pH 7.4): 64%; %-compound metabolised_Met_hLM ([15]; human, microsomes, 0.25 h, 5 μM, pH 7.4): 69%; hCYP3A4_BFC_Pct_Inh ([17]; human, 10 μM, pH 7.4): 81%; hCYP3A4_BQ_Pct_Inh ([17]; human, 10 μM, pH 7.4): 78%; hCYP3A4_DBF_Pct_Inh ([17]; human, 10 μM, pH 7.4): 91%
CC(=O)c1cc(C2=NCc3c(Cl)cc(Cl)cc3-n3cccc32)ccc1F [Compound 23, 1-[5-(7,9-dichloro-6H-pyrrolo[1,2-a][1,4]benzodiazepin-4-yl)-2-fluorophenyl]-ethanone]					> 63.1 µM	> 63.1 µM	> 63.1 µM	> 63.1 µM	> 63.1 µM	> 63.1 µM	> 63.1 µM	3%	51%	17%	22%	51%	56%	40%	%-compound metabolised Met_gpLM ([5]; guinea pig microsomes, 1 mg protein/ml, 5 μM test compound, 15 min, 37 °C): 39%; melting point: 192.3 to 193.4 °C
CC(=O)c1ccc(C2=NCc3c(Cl)ccc(Cl)c3-n3cccc32)cc1 [Compound 25, 1-[4-(7,10-dichloro-6H-pyrrolo[1,2-a][1,4]benzodiazepin-4-yl)phenyl]-ethanone]					> 63.1 µM	10 µM	3.16 µM	> 63.1 µM	> 63.1 µM	5.01 µM	> 63.1 µM	11%	45%	21%	80%	21%	29%	21%	
CC(=O)c1ccc(C2NCc3c(Cl)cccc3-n3cccc32)cc1 (centres unmarked) [drawing 94]	> 10 µM	3.16 µM	3.16 µM	3.16 µM															
